Measured values reported in patent publication US12121521B2, “Uses of salt-inducible kinase (SIK) inhibitors for treating osteoporosis” (The General Hospital Corporation, priority 2016, dated 2024).

How the values were obtained:
Type in all cases: cell-based, mouse
[1] = test system: Ocy454 cells; assay: Immunoblotting of Ocy454 cell lysates (HDAC4/5, CRTC2, SIK2 phosphorylation and localisation)
[2] = test system: Ocy454 cells; assay: cAMP radioimmunoassay; conditions: 20 minutes; FIG. 14B
Method: Cells, in 96 well plates, were treated with indicated ligands for 20 minutes at room temperature in the presence of the phosphodiesterase inhibitor 3-isobutyl-1-methylxanthine (IBMX, Sigma I5879, 2 mM). The medium was then removed and cells were lysed in 50 mM HCl and transferred to −80C. Thawed lysates were diluted 1:5 with dH2O, and an 10 μl aliquot was assessed for cAMP content by radioimmunoassay using ^125I-cAMP analog as a tracer and unlabeled cAMP to generate a standard curve.

[3] = test system: Ocy454 cells; assay: Gene expression in Ocy454 cells by RT-qPCR; conditions: 0.5 μM, 3.5 hours; FIG. 21
Method: In FIG. 21, Ocy454 cells (osteocyte cell line, also known at 6-9 cells) were cultured at 37° C. for 2 weeks to permit osteocyte differentiation. The cells were then treated with the indicated compound (0.5 μM) for 3.5 hours, and gene expression was analyzed by RT-qPCR. SOST expression was reduced by the indicated compounds. RANKL expression was increased by the indicated compounds. […] Therefore, these changes in gene expression may be due to on-target effects of the indicated compound.
(§1) For all experiments, a single cell subclone of Ocy454 cells (17, 18) was used. Cells were passages in alpha-MEM supplemented with 10% heat-inactivated fetal bovine serum and 1% antibiotics (penicillin/streptomycin, Fungizone) at 33° C. with 5% CO2. Cells were plated at 50,000 cells/ml and allowed to reach confluency at 33° C. (typically in 2-3 days). At this point, cells were transferred to 37° C. for subsequent analysis. For immunoblotting, cells were always analyzed after culture at 37° C. for 7 days. For gene expression analysis, cells were analyzed after culture at 37° C. for 14 days. Mycoplasma contamination was ruled out by PCR. Cells were routinely assayed for SOST expression at 37° C. and examined for osteocytic morphology.
Total RNA was extracted from cultured cells using RNeasy (Qiagen, Venlo, Netherlands) following the manufacturer's instructions. For long bone RNA isolation, mice were sacrificed and both femurs were rapidly dissected on ice. Soft tissue was removed and epiphyses cut. Bone marrow cells were then removed by serial flushing with ice-cold PBS. TRIzol (Life Technologies) was added and sampled were frozen at −80C and then homogenized. RNA was then extracted per the manufacturer's instructions, and further purified on RNeasy microcolumns prior to cDNA synthesis. RNA with A260/280 ratio <1.7 was not used for downstream analysis. For cDNA synthesis, 1 μg RNA was used in synthesis reactions according to the instructions of the manufacturer (Primescript RT, Takara). SYBR Green-based qPCR detection was performed using FastStart Universal SYBR Green (Roche, Basel, Switzerland) on a StepOne Plus (Applied Biosystems, Carlsbad, CA) thermocycler.

[4] = test system: Ocy454 cells; assay: Gene expression in Ocy454 cells by RT-qPCR; conditions: FIG. 5E
[5] = test system: Ocy454 cells; assay: Immunoblotting of Ocy454 cell lysates (HDAC4/5, CRTC2, SIK2 phosphorylation and localisation); conditions: 10 uM, 90 minutes, compared to DMSO control; FIGS. 17 to 19
Method: The Ocy454 osteocyte cell line was treated for 90 minutes with the indicated compound at 10 uM dose (FIG. 17). Phospho-HDAC4 S246 levels were monitored by immunoblotting (top band) compared to DMSO control.
as §1, with “morphology. […]” for “morphology.”

Row | SMILES | block of PTH-mediated decreased HDAC4/5 phosphorylation or SOST suppression ([1]; okadaic acid 300 nM plus PTH, FIGS. 13B and 13C) | cAMP levels [2] | RANKL expression [3] | SOST expression [3] | dose of optimal efficacy at the level of gene expression ([4]; 4 hours) | RANKL expression [4] | SOST expression [4] | dose of optimal efficacy at the level of HDAC4/5 dephosphorylation ([1]; 60 minutes, FIG. 5C) | HDAC4/5 phosphorylation ([1]; FIGS. 5B and 5C) | Phospho-HDAC4 S246 levels [5]
1 | C=C1[C@@H](O)[C@@H]2O[C@]3(CC[C@H](/C=C/[C@@H](C)[C@@H]4CC(C)=C[C@@]5(O[C@H](C[C@@](C)(O)C(=O)O)CC[C@H]5O)O4)O3)CC[C@H]2O[C@@H]1[C@@H](O)C[C@H](C)[C@H]1O[C@@]2(CCCCO2)CC[C@H]1C [okadaic acid, reference compound] | did not block PTH-mediated decreased HDAC4/5 phosphorylation or SOST suppression |  |  |  |  |  |  |  |  | 
2 | COc1ccc(N2C(=O)N(c3c(C)cccc3C)Cc3cnc(Nc4ccc(N5CCN(C)CC5)c(OC)c4)nc32)c(OC)c1 [YKL-04-114] |  | without increasing cAMP levels | most active in these experiments at reducing SOST and increasing RANKL | most active in these experiments at reducing SOST | ~0.5 µM | RANKL up-regulation | rapid and potent SOST suppression | ~1 µM | rapid, dose-dependent decreases in HDAC4/5 phosphorylation | showed the most clear results across multiple replicates
